Experiments:
[1] = tested on: Apteronotus leptorhynchus; assay: Neuro-behavioral assay: effect on EOD frequency; type: in vivo; settings: for EOD frequency lower than median baseline frequency immediately after return to isolation tank (range among fish): 2.5% urethane or 0.02% MS-222 immersion until fin and opercular movement ceased; for EOD frequency lower than median baseline frequency immediately after return to isolation tank (range among fish) / EOD frequency lower than median baseline frequency immediately after return to isolation tank (median) / Median EOD frequency change, 30-min interval before vs 15-min interval after start of anesthesia: Median: n=8 fish; for EOD frequency lower than median baseline frequency immediately after return to isolation tank (median): 2.5% urethane or 0.02% MS-222 immersion; for Recovery model parameter a (ratio EOD frequency vs baseline at t=0), estimate / Recovery model parameter b, estimate / Recovery model parameter c, estimate / Recovery model parameter d, estimate: robust nonlinear regression, Equation 1, 2.5% urethane or 0.02% MS-222; for Recovery model (Eq. 3) parameter a: normalized frequency
Description: For the assay, adult brown ghost knifefish (Apteronotus leptorhynchus; Gymnotiformes, Teleostei), with total lengths of approximately 12-15 cm, are used. The fish are imported from their natural habitat in South and Central America.
At least 1 week before using the assay for the first run, the fish is transferred from a community tank to an isolation tank (50 cm×30 cm×30 cm) equipped with aquarium thermostat heaters and air-driven corner filters. The fish is kept in aquarium water prepared by adding a mixture of inorganic salts (81 mmol/L MgSO4·7H2O; 107 mmol/L KCl; 12 mmol/L NaH2PO4·2H2O; 732 mmol/L CaSO4·2H2O) to deionized water until a water conductivity of approximately 150-300 μS/cm is reached. Water temperature, determined during the experiments every 10 min with a calibrated high-precision (accuracy+0.05° C.) digital thermometer, is kept in the range of 25.0-28.0° C. across all assays. Variation is limited to 1.0° C. in an individual assay. A 12:12 h light:dark photoperiod is maintained with a timer. The fish are fed red mosquito larvae daily, after the assay run on that day has been completed.
In each isolation tank, an opaque cylindrical plastic tube (length: 190 mm; inner diameter: 38 mm; outer diameter: 42 mm) provides shelter and is readily accepted by the fish, particularly during the light phase, when individuals of this nocturnal species spend most of the time in shelter places. A pair of stainless-steel electrodes is mounted on the inside of each tube (see section 4.1.2, ‘EOD recording,’ below).
Differential recording of the fish's EOD is done through the pair of stainless-steel electrodes built into the shelter tube (FIG. 1). […] This allows the fish's EOD to be recorded continuously without interruptions. At the same time, mesh size is chosen such that sustained water flow through the tube is ensured. A strip of stainless steel is placed in the tank to serve as a ground electrode.
The signal is AC amplified (gain: 30×; low-pass filter: none; high-pass filter: 200 Hz) and then digitized at a sampling rate of 50 kHz.
The sampled time-voltage data (ti, vi), i=1, . . . , N, are filtered in subsequent, 1-s-long windows using a bandpass filter with frequency band [0.8, 1.2]×f0, where f0 is the fundamental frequency determined from the power spectrum of the signal within the associated time window.
The filtered time series data (ti, Vi), i=1, . . . , N, are further processed to determine the EOD frequency at a higher time resolution. First, tuple j containing the indices of all instants where the filtered signal changes sign to a positive value is determined:
Then, tuple t^+ of time instances when the signal crosses the time axis upwards is calculated using interpolation:
Here M=|j| denotes the number of elements in j (the number of all crossings). Finally, time-frequency pairs (Tk, fk) are computed as
for k=1, . . . , M−m. Here m=10 is the number of averaged time periods used for EOD frequency calculation.
Since the EOD frequency of A. leptorhynchus is temperature dependent, all measured frequencies are adjusted to a reference temperature (arbitrarily chosen to be 26° C.) so that discharge frequencies at different water temperatures can be compared. This adjustment of a frequency f1 (in Hz) measured at a temperature T1 (in ° C.) to the reference temperature T2=26° C. is calculated as
where f2 is the expected frequency at T2 and Q10=1.56, as determined empirically.
The experimental design is outlined in FIG. 2. To determine the baseline EOD frequency, the fish's EOD was recorded for 30 min. Then, the fish was transferred into a glass beaker containing either 2.5% urethane (Acros Organics, New Jersey, USA) or 0.02% MS-222 (Western Chemical, Washington, USA), each dissolved in water from the fish's isolation tank. As a control, the fish was moved into an identical glass beaker containing aquarium water only. […]

[2] = PubChem; cited from earlier work
[3] = tested on: epileptiform field potentials and spreading depression; settings: rat neocortical and hippocampal slices; cited from earlier work
GABAA current = settings: rat trigeminal ganglia; cited from earlier work
Nav 1.7 = target: T1, Nav 1.7 (Homo sapiens, UniProt Q15858); settings: Nav 1.7-transfected CHO cells; cited from earlier work
T1 construct: host or cells: CHO cells (transfected)

[4] = tested on: Apteronotus leptorhynchus; assay: Neuro-behavioral assay: EOD amplitude; type: in vivo
Method: Differential recording of the fish's EOD was performed through a pair of stainless-steel electrodes built into the shelter tube (FIG. 1). During the experiment, the open ends of the tube were closed with a course plastic mesh netting to ensure that the fish remained close to the recording electrodes, thereby yielding high-quality recordings. This restraint is minimally invasive, as, particularly during daytime, the fish remain in shelter tubes with open ends for prolonged periods of time, often for several hours. The recorded EOD signal was amplified and digitized following a protocol established previously. To examine the effect of eugenol on EOD frequency and chirping behavior, the following experiments were conducted using 8 fish (FIG. 11): First, the baseline EOD was recorded in the fish's home tank (50 cm×30 cm×30 cm) for 30 min. Then, for the 5-min treatment session, the shelter tube with the fish was transferred to a smaller (experimental) tank (30 cm×20 cm×20 cm) containing either eugenol dissolved in aquarium water at a certain concentration (30 μL/L, 45 μL/L, or 60 μL/L; ‘test condition’) or aquarium water only (‘control condition’). The temperature in the experimental tank was similar to the temperature in the home tank (median difference: ±0.2° C.). Finally, the shelter tube with the fish was returned to the home tank, where recording continued for 180 min. Throughout the 215 min of pre-treatment, treatment, and post-treatment, the recording of the EOD was interrupted only for a few seconds during which the fish was transferred between its home tank and the experimental tank. The order of the four treatment conditions was determined using a randomized complete block design. Each test or control experiment in a given fish was conducted on a different day.

GABAA receptors = settings: receptors expressed in Xenopus oocytes; cited from earlier work
zebrafish (Danio rerio) = settings: 60 μL/L eugenol, D. rerio; cited from earlier work

T1 sequence (Q15858 whole entry): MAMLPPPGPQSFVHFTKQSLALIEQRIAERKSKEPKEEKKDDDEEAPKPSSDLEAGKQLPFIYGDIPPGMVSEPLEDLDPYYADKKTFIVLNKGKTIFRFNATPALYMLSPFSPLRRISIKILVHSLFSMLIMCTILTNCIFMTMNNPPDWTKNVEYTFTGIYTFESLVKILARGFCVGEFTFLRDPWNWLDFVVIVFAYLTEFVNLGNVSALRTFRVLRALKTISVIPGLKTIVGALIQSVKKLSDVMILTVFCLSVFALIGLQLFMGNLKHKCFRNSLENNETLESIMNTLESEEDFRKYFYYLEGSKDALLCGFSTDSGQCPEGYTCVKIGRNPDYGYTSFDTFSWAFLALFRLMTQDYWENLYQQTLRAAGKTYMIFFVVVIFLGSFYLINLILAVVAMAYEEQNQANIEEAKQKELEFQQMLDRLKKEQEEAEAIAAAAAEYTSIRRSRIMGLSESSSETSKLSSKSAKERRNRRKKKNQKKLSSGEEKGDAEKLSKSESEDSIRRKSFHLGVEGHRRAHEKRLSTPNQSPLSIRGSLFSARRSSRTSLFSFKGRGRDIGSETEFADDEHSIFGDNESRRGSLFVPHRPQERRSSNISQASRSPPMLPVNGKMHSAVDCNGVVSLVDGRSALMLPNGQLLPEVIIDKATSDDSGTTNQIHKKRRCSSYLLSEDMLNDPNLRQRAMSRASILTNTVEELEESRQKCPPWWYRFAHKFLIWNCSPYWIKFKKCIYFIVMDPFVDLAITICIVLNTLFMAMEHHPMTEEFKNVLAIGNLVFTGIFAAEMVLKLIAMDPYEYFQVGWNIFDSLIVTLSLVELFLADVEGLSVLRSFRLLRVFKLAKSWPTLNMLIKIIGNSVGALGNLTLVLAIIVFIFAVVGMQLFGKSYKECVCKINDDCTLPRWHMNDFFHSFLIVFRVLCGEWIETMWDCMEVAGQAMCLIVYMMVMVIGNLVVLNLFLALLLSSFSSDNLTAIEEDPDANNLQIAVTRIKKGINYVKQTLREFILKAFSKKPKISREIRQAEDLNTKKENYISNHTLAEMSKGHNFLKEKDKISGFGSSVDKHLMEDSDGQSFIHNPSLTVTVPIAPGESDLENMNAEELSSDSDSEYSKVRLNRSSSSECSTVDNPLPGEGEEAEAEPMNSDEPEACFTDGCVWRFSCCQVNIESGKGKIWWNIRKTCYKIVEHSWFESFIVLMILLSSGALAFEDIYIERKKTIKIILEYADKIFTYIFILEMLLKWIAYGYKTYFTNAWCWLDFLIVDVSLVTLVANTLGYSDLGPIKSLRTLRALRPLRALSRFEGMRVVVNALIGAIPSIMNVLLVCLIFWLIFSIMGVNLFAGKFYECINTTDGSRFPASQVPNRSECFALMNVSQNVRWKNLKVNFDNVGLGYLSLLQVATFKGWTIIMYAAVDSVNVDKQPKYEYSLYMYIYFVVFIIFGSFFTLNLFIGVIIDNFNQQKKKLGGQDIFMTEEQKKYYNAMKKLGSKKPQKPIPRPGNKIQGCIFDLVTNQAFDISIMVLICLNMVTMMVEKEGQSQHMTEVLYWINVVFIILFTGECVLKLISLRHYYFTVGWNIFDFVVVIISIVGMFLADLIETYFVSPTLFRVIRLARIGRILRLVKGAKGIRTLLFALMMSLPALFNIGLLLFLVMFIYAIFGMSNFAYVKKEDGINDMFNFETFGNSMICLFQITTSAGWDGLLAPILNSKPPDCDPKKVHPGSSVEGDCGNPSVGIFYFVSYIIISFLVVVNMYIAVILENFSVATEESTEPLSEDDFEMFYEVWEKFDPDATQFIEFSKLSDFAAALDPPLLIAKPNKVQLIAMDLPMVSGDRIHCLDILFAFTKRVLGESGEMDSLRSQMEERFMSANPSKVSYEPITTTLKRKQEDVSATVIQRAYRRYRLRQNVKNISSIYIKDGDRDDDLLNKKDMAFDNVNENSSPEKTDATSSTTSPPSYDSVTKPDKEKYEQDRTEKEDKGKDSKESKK

SMILES: CCOC(=O)c1cccc(N)c1 [MS-222, 3-aminobenzoic acid ethyl ester methanesulfonate]
- EOD frequency lower than median baseline frequency immediately after return to isolation tank (range among fish) [1]: 129-279 Hz
- EOD frequency lower than median baseline frequency immediately after return to isolation tank (median) [1]: 168 Hz
- Recovery model parameter a (ratio EOD frequency vs baseline at t=0), estimate ([1]; 8 fish): 0.3584 1
- Recovery model parameter b, estimate ([1]; 8 fish): 0.52 min
- Recovery model parameter c, estimate ([1]; 8 fish): 1.0024
- Recovery model parameter d, estimate ([1]; 8 fish): -9.0311e-06 min⁻¹

SMILES: C=CCc1ccc(O)c(OC)c1 [eugenol]
- octanol-water partition coefficient log kow [2]: 2.49
- Effect on epileptiform field potentials and spreading depression [3]: reversible and dose-dependent suppression
- Effect on GABA-induced current (GABAA current): inhibits GABAA current in a reversible, dose-dependent manner
- Binding to voltage-gated sodium channels (Nav 1.7): preferentially binds to such channels in the inactivated state
- Fish in which the EOD amplitude collapsed to markedly lower levels ([4]; 60 μL/L eugenol, 5 min): 4 out of 8
- Time after end of exposure at which EOD amplitude reached baseline levels ([4]; eugenol, FIG. 19 recording): approximately 6 min
- Time after onset of anesthesia at which the fish's movements ceased (jittering of EOD amplitude minimal) ([4]; eugenol, FIG. 19 recording): Approximately 1.5 min
- Effect on GABAA-receptor response (GABAA receptors): potentiate GABAA-receptor response
- Maximum EOD frequency drop vs median baseline frequency (median) ([1]; 60 μL/L eugenol, 5 min, 8 fish): 232 Hz
- Maximum EOD frequency drop vs median baseline frequency (range) ([1]; 60 μL/L eugenol, 5 min, 8 fish): 184-277 Hz
- Latency until fish started to lower the EOD frequency after transfer into the anesthetic solution ([1]; eugenol 30-60 μL/L): 1 to 2 min
- Recovery model (Eq. 3) parameter b ([1]; eugenol 30 μL/L): 1.4568 min
- Recovery model (Eq. 3) parameter c ([1]; eugenol 30 μL/L): 1.0089
- Recovery model (Eq. 3) parameter d ([1]; eugenol 30 μL/L): -3.2299e-05 min⁻¹
- Difference in the largest normalized EOD frequency drops: Median ([1]; eugenol 30 μL/L vs. Control): −0.1650
- Median EOD frequency change, 30-min interval before vs 15-min interval after start of anesthesia: Median ([1]; eugenol 30 μL/L, 5 min): −48.18 Hz
- Recovery model (Eq. 3) parameter a ([1]; eugenol 30 μL/L): 0.7465 1
- Recovery model (Eq. 3) parameter b ([1]; eugenol 45 μL/L): 1.4064 min
- Recovery model (Eq. 3) parameter c ([1]; eugenol 45 μL/L): 1.0084
- Recovery model (Eq. 3) parameter d ([1]; eugenol 45 μL/L): -3.3821e-05 min⁻¹
- Difference in the largest normalized EOD frequency drops: Median ([1]; eugenol 45 μL/L vs. 30 μL/L): −0.0715
- Median EOD frequency change, 30-min interval before vs 15-min interval after start of anesthesia: Median ([1]; eugenol 45 μL/L, 5 min): −65.54 Hz
- Recovery model (Eq. 3) parameter a ([1]; eugenol 45 μL/L): 0.6344 1
- Recovery model (Eq. 3) parameter b ([1]; eugenol 60 μL/L): 1.5816 min
- Recovery model (Eq. 3) parameter c ([1]; eugenol 60 μL/L): 1.0131
- Recovery model (Eq. 3) parameter d ([1]; eugenol 60 μL/L): -6.2321e-05 min⁻¹
- Difference in the largest normalized EOD frequency drops: Median ([1]; eugenol 60 μL/L vs. 45 μL/L): −0.0349
- Median EOD frequency change, 30-min interval before vs 15-min interval after start of anesthesia: Median ([1]; eugenol 60 μL/L, 5 min): −88.65 Hz
- Recovery model (Eq. 3) parameter a ([1]; eugenol 60 μL/L): 0.5649 1
- Time to a similar stage of anesthesia (zebrafish (Danio rerio)): ≤ 1.5 min

SMILES: CCOC(N)=O [urethane]
- octanol-water partition coefficient log kow [2]: −0.15
- EOD frequency lower than median baseline frequency immediately after return to isolation tank (range among fish) [1]: 104-142 Hz
- EOD frequency lower than median baseline frequency immediately after return to isolation tank (median) [1]: 133 Hz
- EOD frequency drop during first phase of anesthesia ([1]; 2.5% urethane, first phase lasting roughly 30 s): approximately 100 Hz
- Recovery model parameter a (ratio EOD frequency vs baseline at t=0), estimate ([1]; 8 fish): 0.8428 1
- Recovery model parameter b, estimate ([1]; 8 fish): 21.333 min
- Recovery model parameter c, estimate ([1]; 8 fish): 1.0228
- Recovery model parameter d, estimate ([1]; 8 fish): -2.8717e-05 min⁻¹

— patent publication US20240207454A1, “NEURO-BEHAVIORAL ASSAY FOR PHYSIOLOGICAL EVALUATION OF WATER-SOLUBLE ANESTHETICS” (Northeastern University, priority 2022, published 2024)
